In brackets after ≈: the same amount, converted by molar mass.
Columns and labels:
[1] = system: K. pneumoniae NCTC 13442 (OXA-48); assay: Neutropenic mouse lung infection model; type: in vivo, Klebsiella pneumoniae; details: 160 mg/kg/day s.c. (40 mg/kg at 2, 8, 14, 20 h), 26 h postchallenge
[2] = system: Citrobacter kozeri DSM 4595; assay: microbe, parasite or virus in culture; details: Citrobacter, DSM4595
Source text: (§1) Reference strains are from the German Collection of Microorganisms and Cell Cultures (DSMZ), the American Type Culture Collection (ATCC), the National Collection of Type Cultures (NCTC), and the Medical and Molecular Microbiology, Faculty of Science and Medicine, University of Fribourg, Switzerland.

[3] = system: Enterococcus faecium DSM 20477; assay: microbe, parasite or virus in culture; details: Enterococcus faecium, DSM20477
Source text: as §1

[4] = system: Klebsiella pneumoniae ATCC BAA-1904; assay: microbe, parasite or virus in culture; details: Klebsiella pneumoniae, ATCCBAA1904
Source text: as §1

[5] = system: Klebsiella pneumoniae NCTC 13439; assay: microbe, parasite or virus in culture; details: Klebsiella pneumoniae, NCTC13439
Source text: as §1

[6] = system: Enterobacter cloacae DSM 14563; assay: microbe, parasite or virus in culture; details: Enterobacter cloacae, DSM14563
Source text: as §1

[7] = system: Acinetobacter baumannii ATCC 19606; assay: microbe, parasite or virus in culture; details: Acinetobacter baumannii, ATCC19606
Source text: as §1

[8] = system: Citrobacter freundii DSM 30039; assay: microbe, parasite or virus in culture; details: Citrobacter freundii, DSM30039
Source text: as §1

[9] = system: Staphylococcus aureus ATCC 29213; assay: microbe, parasite or virus in culture; details: Staphylococcus aureus, ATCC29213
Source text: as §1

[10] = system: Stenotrophomonas maltophilia ATCC 13637; assay: microbe, parasite or virus in culture; details: Stenotrophomonas maltophilia, ATCC13637
Source text: as §1

[11] = system: Escherichia coli ATCC 25922; assay: microbe, parasite or virus in culture; details: Escherichia coli, ATCC25922
Source text: as §1

[12] = system: Escherichia coli BAA-2469; assay: microbe, parasite or virus in culture; details: NDM-1
Source text: as §1

[13] = system: Escherichia coli BAA-2471; assay: microbe, parasite or virus in culture; details: Escherichia coli, BAA2471
Source text: as §1

[14] = system: Streptococcus pneumoniae DSM 2134; assay: microbe, parasite or virus in culture; details: Streptococcus pneumoniae, DSM2134
Source text: as §1

[15] = system: Enterobacter aerogenes DSM 30053; assay: microbe, parasite or virus in culture; details: Klebsiella aerogenes, DSM30053
Source text: as §1

[16] = system: Enterococcus faecalis DSM 2570; assay: microbe, parasite or virus in culture; details: Enterococcus faecalis, DSM2570
Source text: as §1

[17] = system: Klebsiella pneumoniae NCTC 13442; assay: microbe, parasite or virus in culture; details: Klebsiella pneumoniae, NCTC13442
Source text: as §1

[18] = system: Staphylococcus epidermidis ATCC 12228; assay: microbe, parasite or virus in culture; details: Staphylococcus epidermidis, ATCC12228
Source text: as §1

[19] = system: Serratia marcescens DSM 17174; assay: microbe, parasite or virus in culture; details: Serratia marcescens, DSM17174
Source text: as §1

[20] = system: Klebsiella pneumoniae ATCC 43816; assay: microbe, parasite or virus in culture; details: Klebsiella pneumoniae, ATCC43816
Source text: as §1

[21] = system: Klebsiella pneumoniae ATCC BAA-1905; assay: microbe, parasite or virus in culture; details: Klebsiella pneumoniae, ATCCBAA1905
Source text: as §1

[22] = system: Klebsiella pneumoniae NCTC 13443; assay: microbe, parasite or virus in culture; details: Klebsiella pneumoniae, NCTC13443
Source text: as §1

[23] = system: Pseudomonas aeruginosa DSM 1117; assay: microbe, parasite or virus in culture; details: Pseudomonas aeruginosa, DSM1117
Source text: as §1

[24] = Escherichia coli, BAA2469, Ambler class B carbapenemase

Structure (SMILES) | MIC [2] [µg/mL] | MIC [3] [µg/mL] | MIC [4] [µg/mL] | MIC [5] [µg/mL] | MIC [6] [µg/mL] | MIC [7] [µg/mL] | MIC [8] [µg/mL] | MIC [9] [µg/mL] | MIC [10] [µg/mL] | MIC [11] [µg/mL] | MIC [12, 24] [µg/mL] | MIC [13] [µg/mL] | MIC [14] [µg/mL] | MIC [15] [µg/mL] | MIC [16] [µg/mL] | MIC [17] [µg/mL] | MIC [18] [µg/mL] | MIC [19] [µg/mL] | MIC [20] [µg/mL] | MIC [21] [µg/mL] | further results
CN(C)c1cc(NC(=O)CNC(C)(C)C)c(O)c2c1C[C@H]1C[C@H]3[C@H](N(C)C)C(O)=C(C(N)=O)C(=O)[C@@]3(O)C(O)=C1C2=O [TGC, tigecycline] | 1 (≈ 1.71 µM) | 0.125 (≈ 0.213 µM) | 2 (≈ 3.41 µM) | 2 (≈ 3.41 µM) | 4 (≈ 6.83 µM) | 1 (≈ 1.71 µM) | 1 (≈ 1.71 µM) | 0.5 (≈ 0.854 µM) | 0.5 (≈ 0.854 µM) | 0.25 (≈ 0.427 µM) | 0.5 (≈ 0.854 µM) | 1 (≈ 1.71 µM) | 0.125 (≈ 0.213 µM) | 1 (≈ 1.71 µM) | 0.25 (≈ 0.427 µM) | 2 (≈ 3.41 µM) | 0.5 (≈ 0.854 µM) | 4 (≈ 6.83 µM) | 2 (≈ 3.41 µM) | 4 (≈ 6.83 µM) | reduction of lung burden relative to vehicle [1]: 3.14 log10 CFU/gram of lung tissue; MIC ([12]; Ambler class B carbapenemase): 1 µg/mL (≈ 1.71 µM); MIC [22]: 4 µg/mL (≈ 6.83 µM); MIC [23]: > 8 µg/mL
C[C@@H](O)[C@H]1C(=O)N2C(C(=O)O)=C(SCCN=CN)C[C@H]12 [IPM, imipenem] | 4 (≈ 13.4 µM) | 4 (≈ 13.4 µM) | 32 (≈ 107 µM) | 32 (≈ 107 µM) | 1 (≈ 3.34 µM) | 0.5 (≈ 1.67 µM) | 1 (≈ 3.34 µM) | ≤ 0.125 | > 64 | 0.25 (≈ 0.835 µM) | 32 (≈ 107 µM) | > 64 | ≤ 0.125 | 2 (≈ 6.68 µM) | 1 (≈ 3.34 µM) | 16 (≈ 53.4 µM) | ≤ 0.125 | 2 (≈ 6.68 µM) | 1 (≈ 3.34 µM) | > 64 | MIC [22]: > 64 µg/mL; MIC [23]: 2 µg/mL (≈ 6.68 µM)
